# Experiments:
# [1] = target: T1, MMP02 (Homo sapiens, UniProt P08253); test: MMP assay, determination of IC50 (fluorescence); type: biochemical; details: human MMP 0.5 nM, substrate 5 μM, 1 hour preincubation, pH 7.5
# T1 sequence (P08253 110-660): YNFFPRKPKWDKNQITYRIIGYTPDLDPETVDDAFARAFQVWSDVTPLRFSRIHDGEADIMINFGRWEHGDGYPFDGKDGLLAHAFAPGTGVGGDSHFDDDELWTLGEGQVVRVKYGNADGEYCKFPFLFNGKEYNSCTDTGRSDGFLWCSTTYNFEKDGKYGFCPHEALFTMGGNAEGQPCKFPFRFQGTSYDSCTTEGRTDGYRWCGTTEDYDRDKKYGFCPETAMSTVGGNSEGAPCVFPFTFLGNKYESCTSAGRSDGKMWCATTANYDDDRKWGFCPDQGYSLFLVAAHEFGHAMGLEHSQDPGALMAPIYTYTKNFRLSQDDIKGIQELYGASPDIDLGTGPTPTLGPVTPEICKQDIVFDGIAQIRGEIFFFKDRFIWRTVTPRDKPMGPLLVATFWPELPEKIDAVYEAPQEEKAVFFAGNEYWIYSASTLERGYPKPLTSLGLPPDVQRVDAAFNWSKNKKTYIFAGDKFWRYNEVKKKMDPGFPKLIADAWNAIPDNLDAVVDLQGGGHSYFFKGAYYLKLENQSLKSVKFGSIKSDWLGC
# Procedure: (§1) The activities of a compound according to the present invention can be assessed by the following methods well-described in the art. Determination of IC50 values in MMP assays
# (§2) Dose-response curves are prepared in DMSO/water solution (90/10, v/v) in 96-well plate format and stored at 4° C. up to 24 hours prior to analysis. In all steps poly-propylene pipette tips are changed avoiding cross-contamination or compound carry over. On the day of the assay, each compound is further diluted (1/33.33; 96-well plate format) in water containing 0.05% CHAPS to 3-times the desired assay concentration. In the assay for each compound, 11 concentrations ranging from 30 to 0.0003 μM are investigated (0.0003, 0.001, 0.003, 0.01, 0.03, 0.1, 0.3, 1, 3, 10, 30 μM). A three-fold concentrated MMP solution is prepared in two-fold concentrated assay buffer 100 mM Tris-HCl buffer, pH 7.5 containing 100 mM NaCl, 10 mM CaCl2, 10 μM ZnCl2, 0.05% Brij-35 and dispensed in 96-well Greiner plates. Similarly a three-fold concentrated substrate solution (15 μM) is prepared in 100 mM Tris-HCl buffer, pH 7.5 containing 100 mM NaCl, 10 mM CaCl2, 10 μM ZnCl2, 0.05% Brij-35 and dispensed in 96-well Greiner plates. Transfer of compounds, substrate and enzyme from 96-well plates to 384-well plates is made using either Cybi™well or Cybi™disk devices.
# (§3) The assay procedure is the following, in each well, 10 μL water/CHAPS (±test compound) is added, followed by 10 μL human MMP solution (final assay concentration 0.5 nM). After 1 hour of incubation at room temperature the assay is started by addition of 10 μL substrate solution (final concentration 5 μM).
# (§4) The reaction is allowed to proceed for 1 hours at ambient temperature (˜20-22° C.). At the end of the incubation the fluorescence is measured as described above.
# (§5) The apparent inhibition constant, IC50, is determined from the plot of percentage of inhibition vs. inhibitor concentration using non-linear regression analysis software (XLfit, Vers. 3.0.5; ID Business Solution Ltd., Guildford, Surrey, UK).
# [2] = target: MMP13 (Homo sapiens, UniProt P45452); test: MMP assay, determination of IC50 (fluorescence); type: biochemical; details: human MMP 0.5 nM, substrate 5 μM, 1 hour preincubation, pH 7.5
# Procedure: as §1, §2, §3, §4, §5
# [3] = target: MMP12 (Homo sapiens, UniProt P39900); test: MMP assay, determination of IC50 (fluorescence); type: biochemical; details: human MMP 0.5 nM, substrate 5 μM, 1 hour preincubation, pH 7.5
# MMP12, sequence (P39900 106-470): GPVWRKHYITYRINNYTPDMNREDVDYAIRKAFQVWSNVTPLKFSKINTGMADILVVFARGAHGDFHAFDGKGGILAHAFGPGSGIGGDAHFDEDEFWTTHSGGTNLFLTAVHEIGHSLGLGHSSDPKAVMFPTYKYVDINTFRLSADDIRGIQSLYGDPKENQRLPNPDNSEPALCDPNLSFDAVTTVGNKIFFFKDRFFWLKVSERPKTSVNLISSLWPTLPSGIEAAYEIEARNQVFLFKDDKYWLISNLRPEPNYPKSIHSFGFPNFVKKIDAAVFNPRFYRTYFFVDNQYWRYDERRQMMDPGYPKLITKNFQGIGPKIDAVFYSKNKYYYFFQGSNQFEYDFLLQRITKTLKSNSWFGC
# Procedure: as §1, §2, §3, §4, §5
# [4] = target: MMP09 (Homo sapiens, UniProt P14780); test: MMP assay, determination of IC50 (fluorescence); type: biochemical; details: human MMP 0.5 nM, substrate 5 μM, 1 hour preincubation, pH 7.5
# MMP09, sequence (P14780 94-707): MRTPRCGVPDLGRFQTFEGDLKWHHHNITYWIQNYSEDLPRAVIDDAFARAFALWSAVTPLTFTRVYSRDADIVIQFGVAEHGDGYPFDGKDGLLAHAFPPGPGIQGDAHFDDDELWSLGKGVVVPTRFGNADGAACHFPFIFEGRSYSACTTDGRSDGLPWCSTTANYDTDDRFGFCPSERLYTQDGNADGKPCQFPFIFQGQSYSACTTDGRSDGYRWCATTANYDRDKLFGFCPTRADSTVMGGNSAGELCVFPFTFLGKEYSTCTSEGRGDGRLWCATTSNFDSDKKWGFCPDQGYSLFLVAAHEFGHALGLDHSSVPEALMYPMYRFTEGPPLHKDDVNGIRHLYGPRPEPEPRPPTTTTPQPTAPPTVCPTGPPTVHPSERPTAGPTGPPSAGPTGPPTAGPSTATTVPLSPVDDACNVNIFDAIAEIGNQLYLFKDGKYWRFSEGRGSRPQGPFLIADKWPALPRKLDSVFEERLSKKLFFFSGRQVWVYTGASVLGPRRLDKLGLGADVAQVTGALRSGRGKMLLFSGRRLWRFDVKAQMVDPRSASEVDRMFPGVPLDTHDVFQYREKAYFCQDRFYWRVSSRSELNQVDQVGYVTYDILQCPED
# Procedure: as §1, §2, §3, §4, §5
Compound,melting point,IC50 [1],IC50 [2],IC50 [3],IC50 [4]
"COc1cccc(S(=O)(=O)N(CCC(C)C)[C@@H](C(=O)NO)C(C)(C)C)c1 [Example 1, N-isoamyl-N-(3 Methoxyphenylsulfonyl)D-tert-leucine hydroxamic acid]",115.5 to 116.5 °C,,,,
CC(C)CCN([C@@H](C(=O)NO)C(C)(C)C)S(=O)(=O)c1cccc(Cl)c1 [Example 2-4],,1700 nM,95 nM,17.5 nM,725 nM
COc1cccc(S(=O)(=O)N(CC(C)C)[C@@H](C(=O)NO)C(C)(C)C)c1 [Example 2-6],,11100 nM,250 nM,17.5 nM,1500 nM
CCc1cccc(S(=O)(=O)N(CCC(C)C)[C@@H](C(=O)NO)C(C)(C)C)c1 [Example 2-7],,13900 nM,500 nM,225 nM,7830 nM
CC(=O)Nc1cccc(S(=O)(=O)N(CCC(C)C)[C@@H](C(=O)NO)C(C)(C)C)c1 [Example 2-13],,10200 nM,1150 nM,35 nM,17400 nM
CCOc1cccc(S(=O)(=O)N(CCC(C)C)[C@@H](C(=O)NO)C(C)C)c1 [Example 2-17],,28300 nM,2440 nM,226 nM,12500 nM
COc1cccc(S(=O)(=O)N(Cc2ccccc2)[C@@H](C(=O)NO)C(C)(C)C)c1 [Example 2-23],,12500 nM,800 nM,145 nM,3500 nM
COC(=O)CN([C@@H](C(=O)NO)C(C)(C)C)S(=O)(=O)c1cccc(OC)c1 [Example 2-26],,8750 nM,850 nM,55 nM,3700 nM
COc1cccc(S(=O)(=O)N(CC(=O)N(C)C)[C@@H](C(=O)NO)C(C)(C)C)c1 [Example 2-27],,≥ 40300 nM,4950 nM,300 nM,22700 nM
CC(C)CCN([C@@H](C(=O)NO)C(C)(C)C)S(=O)(=O)c1cccc(N)c1 [Example 2-28],,3150 nM,1550 nM,50 nM,3100 nM
CC(C)CCN([C@@H](C(=O)NO)C(C)(C)C)S(=O)(=O)c1cccc(NC(=O)NC(C)C)c1 [Example 2-34],,3700 nM,1200 nM,65 nM,6900 nM
CCCN([C@@H](C(=O)NO)C(C)(C)C)S(=O)(=O)c1cccc(C(=O)NC)c1 [Example 2-38],,> 30000 nM,25500 nM,650 nM,> 30000 nM
CCCN([C@@H](C(=O)NO)C(C)(C)C)S(=O)(=O)c1cccc(C(=O)OC)c1 [Example 2-39],,> 30000 nM,6550 nM,400 nM,> 30000 nM
CCNC(=O)Nc1cccc(S(=O)(=O)N(CCCN2CCCCC2)[C@@H](C(=O)NO)C(C)(C)C)c1 [Example 4-4],,1350 nM,50 nM,1.5 nM,900 nM
COc1cccc(S(=O)(=O)N(CCCc2cccnc2)[C@@H](C(=O)NO)C(C)(C)C)c1 [Example 5],,7700 nM,70 nM,5.5 nM,400 nM
COc1cccc(S(=O)(=O)N(CCO)[C@@H](C(=O)NO)C(C)(C)C)c1 [Example 6],,3000 nM,30 nM,2 nM,300 nM

# From patent US8314148B2, “Selective hydroxamate based MMP inhibitors” (Novartis AG, priority 2006, dated 2012)
